Laboratory results from patent US8034791B2, “Activation of Egr-1 promoter by DNA damaging chemotherapeutics” (The University of Chicago, priority 2001, dated 2011).
Where a name gives a salt, the structure may show the parent alone.

What was measured:
[1] = tested on: PROb xenografts; conditions: PROb xenografts, vector + IP agent vs vector alone; cisplatin 9, cyclophosphamide 160, doxorubicin 15, 5-FU 100, gemcitabine 500 mg/kg
Experimental: (§1) Saline or chemotherapeutic agents administered IP on days 1 and 2, including 9 mg/kg cisplatin, 160 mg/kg cyclophosphamide, 15 mg/kg doxorubicin, 100 mg/kg 5-FU and 500 mg/kg gemcitabine. Animals were euthanized, and xenografts were harvested 24 hrs after the second IP injection. Xenografts were snap-frozen in liquid nitrogen and homogenized in RIPA buffer (150 mM NaCl, 10 mM Tris pH 7.5, 5 mM EDTA pH 7.5, 100 mM PMSF, 1 µg/ml leupeptin and 2 μg/ml aprotinin) using a Brinkman Polytron homogenizer (Kinematica AG, Lucerne, Switzerland). After three freeze-thaw lysis cycles, the homogenate was centrifuged at 7800×g in a Sorvall RC-5C SS34 rotor (Kendro Laboratory Products, Newtown, Conn.) for 10 min at 4° C. TNF-α levels in the supernatants were measured by ELISA as described above.

[2] = tested on: PC-3 xenografts; assay type: in vivo, athymic nude mice; conditions: vector + IP agent days 1 and 2, cisplatin 9, cyclophosphamide 160, doxorubicin 15, 5-FU 100, gemcitabine 500 mg/kg
Experimental: as §1

[3] = tested on: PC-3 xenografts; assay: Xenograft regrowth study, PC-3; assay type: in vivo, athymic nude mice
Experimental: Xenograft regrowth studies. Treatment was initiated on day 0 at which time mice were assigned to one of 4 treatment groups: control, doxorubicin, Ad.Egr-TNF.11D, and combination of Ad.Egr-TNF.11D and doxorubicin. On days 0 and 3, mice received IT injection of 10 μl of either 5×10^9 p.u. Ad.Egr-TNF.11D, or 10 μl of viral formulation buffer. IP injections of doxorubicin or NS (2 mg/kg) were administered daily from days 0 through 8. Xenografts were measured twice weekly and tumor volume was calculated according to the formula (length×width×thickness)/2. Fractional tumor volumes (V/V0 where V0=volume on day 0) were calculated and plotted.

[4] = tested on: PROb cells; assay: Chemo-sensitivity by MTS assay, PROb cells; assay type: cell-based, rat; conditions: Ad.Egr-TNF.11D and chemotherapy 24 hrs
Experimental: (§2) Chemo-sensitivity of PC-3 and PROb cells as determined by MTS assay. PC-3 and PROb cells were plated at a density of 10^5 cells/100 μl medium in 96-well tissue culture plates and incubated overnight. […] After incubation, 200 μl of complete media, with or without chemotherapeutic agents, was added. Chemotherapeutic agents used were at final concentrations of cisplatin at 46 and 460 μM, doxorubicin at 3 and 300 μM, 5-fluorouracil at 2 and 200 mM and paclitaxel at 1.4 and 140 μM. Media was removed 24 hrs later and each well was rinsed with 200 μl of complete media (CM) and aspirated. 100 μl of CM was then added with 20 μl of CellTiter 96® Aqueous One Solution Cell Proliferation Assay solution (Promega, Madison, Wis.), and the cells were allowed to incubate for 1 hr. Absorbance was measured at 490-650 nm.

[5] = tested on: PROb cells; assay: Preliminary in vitro TNF-α induction, PROb cells; assay type: cell-based, rat; conditions: PROb cells treated with Ad.TNF (100 MOI), 24 hrs; cisplatin 250 μM, doxorubicin 3 μM, 5-FU 20 mM, paclitaxel 14 μM
Experimental: (§3) In vitro measurement of TNF-α protein. PC-3 and PROb cells were plated in 96-well plates, grown overnight, and infected with Ad.Egr.TNF at 100 multiplicities of infection, incubated for three hrs, and were then treated with cisplatin (250 μM), doxorubicin (3 μM), 5-FU (20 mM) or paclitaxel (14 μM). Supernatants were harvested 24 hrs later and human TNF-α production was quantified by ELISA. Experiments were performed in quintuplicate.

[6] = tested on: PC-3 cells; assay: Preliminary in vitro TNF-α induction, PC-3 cells; assay type: cell-based, human; conditions: vector treated PC-3 cells (100 MOI), 24 hrs; cisplatin 250 μM, doxorubicin 3 μM, 5-FU 20 mM, paclitaxel 14 μM
Experimental: as §3

[7] = tested on: PROb cells; assay: Chemo-inducibility of Ad.Egr-TNF.11D in vitro, PROb cells; assay type: cell-based, rat; conditions: vector-infected PROb cells, 24 hrs; cisplatin 250 μM, doxorubicin 3 μM, 5-FU 100 mM, gemcitabine 3 mM, paclitaxel 14 μM
Experimental: (§4) PC-3 and PROb cells were plated, infected with Ad.Egr.TNF, and incubated as discussed above. After incubation, 200 μl of CM, with or without chemotherapeutic agents, including cisplatin (250 μM), doxorubicin (3 μM), 5-fluorouracil (100 mM), gemcitabine (3 mM) and paclitaxel (14 μM) were added. Conditioned medium was harvested 24 hrs. later, and TNF-α concentration was measured (Quantikine Human TNF-α ELISA kit, R & D Systems, Minneapolis, Minn.).

[8] = tested on: PC-3 cells; assay: Chemo-sensitivity by MTS assay, PC-3 cells; assay type: cell-based, human; conditions: PC-3, Ad.Egr-TNF.11D and chemotherapy 24 hrs
Experimental: as §2

[9] = tested on: PC-3 xenografts; assay: Analysis of microvessel density (anti-CD31), PC-3 xenografts; assay type: in vivo, athymic nude mice; conditions: day 27, anti-CD31
Experimental: Two or three xenografts from each treatment group in the PC-3 regrowth study above were collected and fixed in 10% neutral buffered formalin, embedded in paraffin, cut in 5 μm slices, mounted, baked, cleared in xylene, and rehydrated in decreasing alcohol concentrations (100%-70%) and distilled water. Sections were microwaved in 10 mM citrate buffer at pH 6.0 for 18 min, washed and soaked in 1% hydrogen peroxide/methanol for 20 min prior to blocking with avidin-biotin (Vector Laboratories, Burlingame, Calif.) for 15 min. Slides were incubated with biotin (15 min), washed and blocked with serum-free DAKO protein (DAKO, Carpinteria, Calif.) for 10 min prior to incubation with a 1:50 dilution of goat anti-mouse CD31 antibody (Santa Cruz, Santa Cruz, Calif.) for 60 min at RT. CD-31 staining was visualized on tissue sections following incubation with DAKO biotinylated anti-goat secondary antibody for 30 min and DAB reagent (Vector) for 60 sec. Sections were counterstained with Gill 3 hematoxylin and dehydrated in ethanol (95%-100%) and xylene prior to mounting. All slides were read by an investigator blinded to the treatment groups. Positively stained vessels were counted in 5-10 high power fields (×400) per slide using light microscopy. Blood vessels were identified by endothelial cell staining and by endothelial cells surrounding intraluminal erythrocytes. […]

[10] = tested on: PROb xenografts; assay: Xenograft regrowth study, PROb; assay type: in vivo, athymic nude mice; conditions: day 27, among control, doxorubicin alone and vector alone
Experimental: Xenograft regrowth studies. […] On days 0 and 3, mice received IT injection of 10 μl of either 5×10^9 p.u. […] IP injections of doxorubicin or NS (2 mg/kg) were administered daily from days 0 through 8. Xenografts were measured twice weekly and tumor volume was calculated according to the formula (length×width×thickness)/2. Fractional tumor volumes (V/V0 where V0=volume on day 0) were calculated and plotted.

[11] = tested on: PC-3 cells; assay: Chemo-inducibility of Ad.Egr-TNF.11D in vitro, PC-3 cells; conditions: PC-3 cells, doses used in the chemo-induction experiments (3 μM)
Experimental: as §4

[12] = tested on: PC-3 xenografts; assay type: in vivo, nude mice; conditions: IT vector 5×10^9 p.u. + IP agent vs vector and NS, cisplatin 9, cyclophosphamide 160, doxorubicin 15, 5-FU 100 mg/kg
Experimental: (§5) In vivo measurement of TNF-α protein. PC-3 (1×10^7 cells) or PROb cells (5×10^6) in 100 μl PBS were injected subcutaneously into the right hind limb of nude mice. Tumor-bearing mice received IT Ad.Egr.TNF (5×10^9 p.u. in 10 μl) with 250 μl of complete media with NS or a chemotherapeutic agent, including cisplatin (9 mg/kg), cyclophosphamide (160 mg/kg), doxorubicin (15 mg/kg), 5-fluorouracil (100 mg/kg) and gemcitabine (500 mg/kg). Each mouse IP injections were administered 20 hrs after transfection, and two consecutive IT and IP injections were given. Animals were euthanized, and xenografts were harvested 48 hrs after the second IP injection. Xenografts were snap-frozen in liquid nitrogen and homogenized in RIPA buffer (150 mM NaCl, 10 mM Tris at pH 7.5, 5 mM EDTA at pH 7.5, 100 mM PMSF, 1 μg/ml leupeptin and 2 μg/ml aprotinin). After three freeze-thaw lysis cycles, the homogenate was centrifuged for 10 minutes at 4° C. TNF-α levels in the supernatants were measured as described above.

[13] = tested on: PROb xenografts; assay type: in vivo, nude mice; conditions: IT vector 5×10^9 p.u. + IP agent vs vector plus NS, cisplatin 9, cyclophosphamide 160, doxorubicin 15, 5-FU 100, gemcitabine 500 mg/kg
Experimental: as §5

[14] = higher concentration: cisplatin 460 μM, doxorubicin 300 μM, 5-FU 200 mM, taxol 140 μM
[15] = lower concentration: cisplatin 46 μM, doxorubicin 3 μM, 5-FU 2 mM, taxol 1.4 μM

COc1cccc2c1C(=O)c1c(O)c3c(c(O)c1C2=O)C[C@@](O)(C(=O)CO)C[C@@H]3O[C@H]1C[C@H](N)[C@H](O)[C@H](C)O1 [doxorubicin, doxorubicin hydrochloride]
induction of TNF-α protein [1]: 2.3 fold
increase in TNF-α levels [2]: 4.2 fold
tumor growth ([3]; PC-3 xenografts, day 23, doxorubicin 2 mg/kg IP daily): 3 fold
systemic toxicity, including weight loss and deaths ([3]; xenograft regrowth studies in nude mice): Systemic toxicity, including weight loss and deaths, was observed
surviving fraction [4, 14]: 85%
surviving fraction [4, 15]: 100%
increased TNF levels [5]: 7.3 fold
increased TNF levels [6]: 14.5 fold
increase in TNF-α levels [7]: 7.4 fold
surviving fraction [8, 14]: 30%
surviving fraction [8, 15]: 90%
number of vessels per high power field [9]: 6.24±0.35
tumor growth delay [10]: no difference in tumor growth delay
toxicity to cells [11]: toxic at the doses used
induced TNF-α [12]: 3.1 fold
increased TNF-α levels [13]: 2.5 fold
